Measured values published in paper PMC7413254 (Nature Communications, 2020).
Where two headings read alike, the source gives them in different places. Where no end group is shown, it is not given here.

What was measured:
Assay type in all cases: cell-based
PfNT1 = molecular target: T1, PfNT1 (Plasmodium falciparum, UniProt Q8IDM6); test: cell-based; details: trans-stimulation, solute 45 mM injected (estimated intracellular)
T1 construct: expressed in transfected cells; host or cells: Xenopus laevis oocytes (stage V-VI), cRNA-injected
Method in brief: (§1)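 Transport measured in Xenopus oocytes expressing the transporters, 1.5 h at 27.5 °C in ND96 pH 5.5 unless noted. For trans-stimulation, VF-6 injected in 25 nL ND96 at pH 5.0–7.0 or Na^+-free (choline) buffer; intracellular levels based on ~400 nL oocyte volume. Ten oocytes per treatment, ≥4 experiments.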

PfCRT^3D7 = PfCRT^3D7 (Plasmodium falciparum, UniProt Q8IBZ9); test: cell-based; details: for [3H]CQ transport, PfCRT3D7 (% PfCRT3D7 control): solute 45 mM injected (estimated intracellular)
Method in brief: as §1

PfCRT^Dd2 [1] = molecular target: T2, PfCRT^Dd2 (Plasmodium falciparum, UniProt Q9N623, A220S/I356T/K76T/M74I/N326S/N75E/Q271E/R371I); test: cell-based
Method in brief: as §1

PfCRT^Ecu1110 [2] = molecular target: T3, PfCRT^Ecu1110 (Plasmodium falciparum, UniProt Q9N623, A220S/I356L/K76T/N326D); test: cell-based; details: for [3H]CQ transport (% PfCRTDd2 control), trans-stimulation, PfCRTEcu1110: PfCRT-mediated component (background subtracted), sheet title says normalised to PfCRTDd2 control, mean ± SEM, SEM
Method in brief: as §1

PfCRT^Dd2 [3] = molecular target: T2, PfCRT^Dd2; test: [3H]CQ uptake into Xenopus oocytes, cis-inhibition by unlabelled solute; details: for PfCRT-mediated [3H]CQ transport, cis-inhibition (% PfCRTDd2 control): PfCRTDd2 oocytes, background [3H]CQ accumulation subtracted, normalised to oocyte type control
Method in brief: (§2)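 PfCRT-expressing and control oocytes: ND96 pH 5.5 → 1.5 h at 27.5 °C → ice-cold ND96 wash → 10% SDS lysis → scintillation count.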

PfCRT^Ecu1110 [4] = molecular target: T3, PfCRT^Ecu1110; test: as above; details: for PfCRT-mediated [3H]CQ transport, cis-inhibition (% PfCRTEcu1110 control): PfCRTEcu1110 oocytes, background [3H]CQ accumulation subtracted, normalised to oocyte type control; for [3H]CQ transport (% PfCRTEcu1110 control), cis-inhibition, PfCRTEcu1110: PfCRT-mediated component (background subtracted), sheet title says normalised to PfCRTDd2 control, mean ± SEM
Method in brief: as §2

[5] = [test solute]i = 5 mM (intracellular), PfCRT3D7 oocytes, normalised to oocyte type control
[6] = [test solute]i = 45 mM (intracellular; 30 mM for some solutes due to solubility), PfCRT3D7 oocytes, normalised to oocyte type control
[7] = trans-stimulation, Experiment 1
[8] = trans-stimulation, Experiment 2
[9] = trans-stimulation, Experiment 3
[10] = trans-stimulation, Experiment 4
[11] = [test solute]i = 5 mM (intracellular), PfCRTDd2 oocytes, normalised to oocyte type control
[12] = [test solute]i = 45 mM (intracellular; 30 mM for some solutes due to solubility), PfCRTDd2 oocytes, normalised to oocyte type control
[13] = [test solute]i = 5 mM (intracellular), PfCRTEcu1110 oocytes, normalised to oocyte type control
[14] = [test solute]i = 45 mM (intracellular; 30 mM for some solutes due to solubility), PfCRTEcu1110 oocytes, normalised to oocyte type control
[15] = read-out: PfCRT-mediated [3H]CQ transport, cis-inhibition (% PfCRTDd2 control)
[16] = read-out: PfCRT-mediated [3H]CQ transport, cis-inhibition (% PfCRTEcu1110 control)
[17] = read-out: [3H]CQ transport (% PfCRTEcu1110 control), cis-inhibition, PfCRTEcu1110, SEM

T1 sequence (Q8IDM6 whole entry): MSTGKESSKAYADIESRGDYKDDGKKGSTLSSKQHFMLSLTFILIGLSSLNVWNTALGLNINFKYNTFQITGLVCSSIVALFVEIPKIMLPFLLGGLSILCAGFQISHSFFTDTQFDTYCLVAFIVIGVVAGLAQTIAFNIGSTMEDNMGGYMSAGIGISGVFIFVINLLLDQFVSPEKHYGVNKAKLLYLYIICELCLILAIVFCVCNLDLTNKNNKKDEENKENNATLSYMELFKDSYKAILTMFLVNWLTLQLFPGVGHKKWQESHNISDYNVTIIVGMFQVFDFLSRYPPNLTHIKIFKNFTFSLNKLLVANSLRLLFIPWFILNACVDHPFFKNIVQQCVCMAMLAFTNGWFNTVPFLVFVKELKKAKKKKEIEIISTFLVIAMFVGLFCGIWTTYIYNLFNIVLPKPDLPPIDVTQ
T2 sequence (Q9N623 whole entry A220S/I356T/K76T/M74I/N326S/N75E/Q271E/R371I): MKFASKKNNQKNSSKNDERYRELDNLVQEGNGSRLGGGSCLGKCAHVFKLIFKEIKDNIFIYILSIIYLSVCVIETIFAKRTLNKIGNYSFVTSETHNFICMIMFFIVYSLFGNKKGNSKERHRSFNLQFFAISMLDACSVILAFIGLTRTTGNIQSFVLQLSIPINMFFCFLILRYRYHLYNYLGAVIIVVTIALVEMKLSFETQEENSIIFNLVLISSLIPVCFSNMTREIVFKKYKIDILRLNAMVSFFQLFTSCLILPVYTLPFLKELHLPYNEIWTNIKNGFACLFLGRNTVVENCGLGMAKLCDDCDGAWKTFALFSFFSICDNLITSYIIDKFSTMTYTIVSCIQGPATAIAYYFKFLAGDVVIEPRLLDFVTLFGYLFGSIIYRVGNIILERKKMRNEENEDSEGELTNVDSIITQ
T3 sequence (Q9N623 whole entry A220S/I356L/K76T/N326D): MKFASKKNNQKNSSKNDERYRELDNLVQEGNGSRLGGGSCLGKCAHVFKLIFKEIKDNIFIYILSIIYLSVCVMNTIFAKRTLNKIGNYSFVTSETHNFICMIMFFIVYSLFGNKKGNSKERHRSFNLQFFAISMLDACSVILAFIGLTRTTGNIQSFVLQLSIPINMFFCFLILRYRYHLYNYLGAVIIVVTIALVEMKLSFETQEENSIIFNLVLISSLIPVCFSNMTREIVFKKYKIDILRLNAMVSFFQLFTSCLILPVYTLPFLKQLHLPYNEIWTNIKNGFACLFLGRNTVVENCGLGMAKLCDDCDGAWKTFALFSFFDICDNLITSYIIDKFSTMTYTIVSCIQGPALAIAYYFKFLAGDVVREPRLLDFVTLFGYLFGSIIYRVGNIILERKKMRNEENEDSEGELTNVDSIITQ
Sequence of PfCRT^3D7 (Q8IBZ9 59-398): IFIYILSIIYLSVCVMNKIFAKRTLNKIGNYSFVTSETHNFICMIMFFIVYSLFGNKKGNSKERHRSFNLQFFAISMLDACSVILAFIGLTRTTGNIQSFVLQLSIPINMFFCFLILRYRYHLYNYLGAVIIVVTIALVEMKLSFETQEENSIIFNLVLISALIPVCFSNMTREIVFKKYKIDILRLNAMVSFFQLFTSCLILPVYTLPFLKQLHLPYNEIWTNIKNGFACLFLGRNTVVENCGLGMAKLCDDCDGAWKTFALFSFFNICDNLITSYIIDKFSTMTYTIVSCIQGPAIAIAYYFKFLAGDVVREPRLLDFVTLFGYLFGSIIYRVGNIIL

Substance	[3H]CQ transport, PfNT1 (% PfCRTDd2 control) (PfNT1; Experiment 1)	[3H]CQ transport, PfNT1 (% PfCRTDd2 control) (PfNT1; Experiment 2)	[3H]CQ transport, PfNT1 (% PfCRTDd2 control) (PfNT1; Experiment 3)	[3H]CQ transport, PfNT1 (% PfCRTDd2 control) (PfNT1; Experiment 4)	PfCRT-mediated [3H]CQ transport, trans-stimulation (% PfCRT3D7 control) (PfCRT^3D7; [5])	PfCRT-mediated [3H]CQ transport, trans-stimulation (% PfCRT3D7 control) (PfCRT^3D7; [6])	[3H]CQ transport, PfCRT3D7 (% PfCRT3D7 control) (PfCRT^3D7; [7])	[3H]CQ transport, PfCRT3D7 (% PfCRT3D7 control) (PfCRT^3D7; [8])	[3H]CQ transport, PfCRT3D7 (% PfCRT3D7 control) (PfCRT^3D7; [9])	[3H]CQ transport, PfCRT3D7 (% PfCRT3D7 control) (PfCRT^3D7; [10])	PfCRT-mediated [3H]CQ transport, trans-stimulation (% PfCRTDd2 control) (PfCRT^Dd2 [1]; [11])	PfCRT-mediated [3H]CQ transport, trans-stimulation (% PfCRTDd2 control) (PfCRT^Dd2 [1]; [12])	PfCRT-mediated [3H]CQ transport, trans-stimulation (% PfCRTEcu1110 control) (PfCRT^Ecu1110 [2]; [13])	PfCRT-mediated [3H]CQ transport, trans-stimulation (% PfCRTEcu1110 control) (PfCRT^Ecu1110 [2]; [14])	PfCRT-mediated [3H]CQ transport, cis-inhibition (% PfCRTDd2 control) (PfCRT^Dd2 [3]; [test solute] = 0.5 mM)	PfCRT-mediated [3H]CQ transport, cis-inhibition (% PfCRTDd2 control) (PfCRT^Dd2 [3]; [test solute] = 1 mM)	PfCRT-mediated [3H]CQ transport, cis-inhibition (% PfCRTDd2 control) (PfCRT^Dd2 [3]; [test solute] = 2 mM)	PfCRT-mediated [3H]CQ transport, cis-inhibition (% PfCRTEcu1110 control) (PfCRT^Ecu1110 [4]; [test solute] = 0.5 mM)	PfCRT-mediated [3H]CQ transport, cis-inhibition (% PfCRTEcu1110 control) (PfCRT^Ecu1110 [4]; [test solute] = 1 mM)	PfCRT-mediated [3H]CQ transport, cis-inhibition (% PfCRTEcu1110 control) (PfCRT^Ecu1110 [4]; [test solute] = 2 mM)	other results
DLHAHKLR [DR-8]	3.43	3.47	3.21	3.51	130 ± 5.2	181 ± 5.2	184.56	199.32	173.32	194.32	100 ± 2.9	110 ± 3.7	130 ± 3.3	139 ± 3.7	47 ± 3.9	31 ± 2.1	12 ± 0.9	58 ± 1.2	42 ± 2.6	28 ± 2.4	
HVDDM [HM-5]	3.35	3.11	3.44	3.27			193.43	185.08	185.21	174.23											activity at 5000 µM (PfCRT^3D7; […], read-out: PfCRT-mediated [3H]CQ transport, trans-stimulation (% PfCRT3D7 control), [test solute]i = 5 mM (intracellular), PfCRT3D7 oocytes, normalised to oocyte type control): 130 ± 4.2%; activity at 45000 µM (PfCRT^3D7; […], read-out: PfCRT-mediated [3H]CQ transport, trans-stimulation (% PfCRT3D7 control), [test solute]i = 45 mM (intracellular; 30 mM for some solutes due to solubility), PfCRT3D7 oocytes, normalised to oocyte type control): 178 ± 5.2%; [3H]CQ transport (% PfCRT3D7 control), trans-stimulation, PfCRT3D7 (PfCRT^3D7; trans-stimulation, [test solute]i = 5 mM (injected), PfCRT-mediated component (background subtracted), sheet title says normalised to PfCRTDd2 control, mean ± SEM, SEM): 0.2 ± 0.01 % PfCRT3D7 control; activity at 5000 µM (PfCRT^Dd2 [1]; […], pH 5.5, read-out: PfCRT-mediated [3H]CQ transport, trans-stimulation (% PfCRTDd2 control), [test solute]i = 5 mM (intracellular), PfCRTDd2 oocytes, normalised to oocyte type control): 100 ± 2.5%; activity at 5000 µM (PfCRT^Dd2 [1]; […], pH 5.5, read-out: [3H]CQ transport (% PfCRTDd2 control), trans-stimulation, PfCRTDd2, trans-stimulation, [test solute]i = 5 mM (injected), PfCRT-mediated component (background subtracted), mean ± SEM, SEM): 100 ± 2.5%; activity at 45000 µM (PfCRT^Dd2 [1]; […], pH 5.5, read-out: [3H]CQ transport (% PfCRTDd2 control), trans-stimulation, PfCRTDd2, trans-stimulation, [test solute]i = 45 mM (30 mM for some solutes due to solubility), PfCRT-mediated component (background subtracted), mean ± SEM, SEM): 113 ± 2.2%; activity at 5000 µM (PfCRT^Ecu1110 [2]; […], pH 5.5, read-out: PfCRT-mediated [3H]CQ transport, trans-stimulation (% PfCRTEcu1110 control), [test solute]i = 5 mM (intracellular), PfCRTEcu1110 oocytes, normalised to oocyte type control): 122 ± 1.1%; inhibition at 500 µM (PfCRT^Dd2 [3]; [15]): 32 ± 0.8%; inhibition at 1000 µM (PfCRT^Dd2 [3]; [15]): 19 ± 2%; inhibition at 2000 µM (PfCRT^Dd2 [3]; [15]): 9 ± 0.1%; inhibition at 1000 µM (PfCRT^Ecu1110 [4]; [16]): 41 ± 3.5%; inhibition at 2000 µM (PfCRT^Ecu1110 [4]; [16]): 32 ± 2.1%; inhibition at 500 µM (PfCRT^Ecu1110 [4]; [17]): 14 ± 0.1%; inhibition at 2000 µM (PfCRT^Ecu1110 [4]; [17]): 10 ± 0.5%
YFPHF [YF-5]	2.73	2.48	2.58	2.37	128 ± 2.3	147 ± 4.2	142.23	155.33	162.85	149.32	97 ± 3.4	113 ± 2.4	120 ± 2.7	131 ± 3.6	53 ± 3.1	39 ± 2.1	7.2 ± 0.1	63 ± 3.5	48 ± 1.0	32 ± 2.1	[3H]CQ transport (% PfCRTDd2 control), trans-stimulation, PfCRTDd2 (PfCRT^Dd2 [1]; [test solute]i = 5 mM (injected), PfCRT-mediated component (background subtracted), mean ± SEM, SEM): 97 ± 3.4 % PfCRTDd2 control; [3H]CQ transport (% PfCRTDd2 control), trans-stimulation, PfCRTDd2 (PfCRT^Dd2 [1]; [test solute]i = 45 mM (30 mM for some solutes due to solubility), PfCRT-mediated component (background subtracted), mean ± SEM, SEM): 113 ± 2.4 % PfCRTDd2 control; [3H]CQ transport (% PfCRTDd2 control), trans-stimulation, PfCRTEcu1110 (PfCRT^Ecu1110 [2]; [test solute]i = 5 mM (injected)): 37 ± 1.5 % PfCRTEcu1110 control; [3H]CQ transport (% PfCRTDd2 control), trans-stimulation, PfCRTEcu1110 (PfCRT^Ecu1110 [2]; [test solute]i = 45 mM (30 mM for some solutes due to solubility)): 40 ± 1.5 % PfCRTEcu1110 control; [3H]CQ transport (% PfCRTEcu1110 control), cis-inhibition, PfCRTEcu1110 (PfCRT^Ecu1110 [4]; [test solute] = 0.5 mM, SEM): 20 ± 0.4 % PfCRTEcu1110 control; [3H]CQ transport (% PfCRTEcu1110 control), cis-inhibition, PfCRTEcu1110 (PfCRT^Ecu1110 [4]; [test solute] = 1 mM, SEM): 15 ± 0.1 % PfCRTEcu1110 control; [3H]CQ transport (% PfCRTEcu1110 control), cis-inhibition, PfCRTEcu1110 (PfCRT^Ecu1110 [4]; [test solute] = 2 mM, SEM): 10 ± 0.3 % PfCRTEcu1110 control
